# Measured values reported in PMC11267572, “A Repurposed Drug Interferes with Nucleic Acid to Inhibit the Dual Activities of Coronavirus Nsp13” (ACS Chemical Biology, 2024).
# “Also recorded” adds a separate entry of the source. Like-named read-outs stand apart in the source and are kept apart here.
# What was measured:
# SARS-CoV-2 Nsp13 [1] = target: T1, SARS-CoV-2 Nsp13 (Severe acute respiratory syndrome coronavirus 2, UniProt P0DTD1); experiment: biochemical; details: for inhibition at 50 µM: read-out: inhibition of helicase activity
# T1 construct: its nonstructural protein 13 (Nsp13) remains a clinically untapped target; His6-Zb-TEV (N, cleaved yes); host or cells: E. coli BL21 (DE3)
# SARS-CoV-2 Nsp13 [2] = target: T1, SARS-CoV-2 Nsp13; experiment: biochemical; details: for first-round screen, inhibition of Nsp13 ATPase activity (considered active): no detergent, t = 5 min, compound equimolar to ATP
# [3] = system: duplex-FL (labeled duplex DNA); format: binding; details: duplex-FL 100 nM, 10% DMSO, no protein
# [4] = system: Chinese hamster ovary (CHO) cells expressing CFTR or colon carcinoma cells; details: cited from earlier work
# SARS-CoV-2 = system: SARS-CoV-2; design: method as in PMID 35456026; details: micromolar concentrations, CFTR-expressing cells; cited from earlier work
# SARS-CoV-2 Nsp13 [5] = target: T1, SARS-CoV-2 Nsp13; format: biochemical
# [6] = target: T2, Hepatitis C Virus (HCV) RNA helicase NS3 (Hepatitis C virus genotype 1b, UniProt Q9WMX2); format: biochemical
# T2 construct: A truncated form of the Hepatitis C NS3 helicase protein; His-SUMO (N, cleaved yes); made in house; host or cells: E. coli BL21 (DE3) per the methods text
# T2 sequence (Q9WMX2 1193-1657): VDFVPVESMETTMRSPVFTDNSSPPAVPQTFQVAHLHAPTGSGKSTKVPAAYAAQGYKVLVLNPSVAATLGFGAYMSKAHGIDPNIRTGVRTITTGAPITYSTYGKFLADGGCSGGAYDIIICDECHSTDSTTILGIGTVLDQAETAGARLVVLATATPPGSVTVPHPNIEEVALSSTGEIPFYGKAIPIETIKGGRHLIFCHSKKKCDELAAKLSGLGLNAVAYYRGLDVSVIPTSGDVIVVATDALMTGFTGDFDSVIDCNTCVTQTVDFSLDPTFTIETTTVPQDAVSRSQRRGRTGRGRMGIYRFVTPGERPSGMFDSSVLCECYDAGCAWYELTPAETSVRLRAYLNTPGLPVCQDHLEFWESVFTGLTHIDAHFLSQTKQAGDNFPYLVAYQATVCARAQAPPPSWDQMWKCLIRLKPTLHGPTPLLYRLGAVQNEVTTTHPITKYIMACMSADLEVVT
# Tte UvrD helicase = format: biochemical; details: 3.02 nM UvrD, 1 mM ATP, 65 °C, increasing concentrations
# SARS-CoV-2 Nsp13 [7] = target: T1, SARS-CoV-2 Nsp13; format: biochemical; remark: listed apart in the source
# [8] = system: Vero E6, Vero ACE2-TMPRSS2 and A549 ACE2 cells; details: t = 22 hr
# Nsp13 = details: cited from earlier work
# SARS-CoV-2 Nsp13 [9] = target: T1, SARS-CoV-2 Nsp13; format: binding; details: duplex-FL 100 nM, Nsp13 1 μM
smiles,measurement,setting,value
CNC(=O)c1cc(COc2nnc(Nc3ccc(Cl)cc3)c3ccoc23)ccn1 [telatinib],IC50,SARS-CoV-2 Nsp13 [1],20.4 ± 1.5 µM
same,IC50,"SARS-CoV-2 Nsp13 [2]; 25 nM Nsp13, 0.01% Tween-20, read-out: ATPase inhibition IC50",~114 µM
same,"first-round screen, inhibition of Nsp13 ATPase activity (considered active)",SARS-CoV-2 Nsp13 [2],active
O=C(NCc1ccc(Oc2ccccc2)cc1)c1nc(-c2cc(Br)c(O)c(Br)c2)no1 [IOWH-032],interaction with duplex-FL probe alone,[3],does not interact with probe alone; also recorded: no direct interaction
same,toxicity,[4],not toxic
same,reduction of SARS-CoV-2 viral loads compared to untreated cells,SARS-CoV-2,> 2 log10
same,mode of helicase inhibition with respect to nucleic acid substrate,SARS-CoV-2 Nsp13 [5],mixed inhibition
same,concentration above which NS3 ATPase activity decreases,"[6]; 250 nM NS3, 250 μM ATP",exceed 100 µM
same,sensitivity of NS3 ATPase activity,[6]; mid-micromolar concentrations of compound,nearly insensitive
same,effect on UvrD ATPase activity (ATP consumption),Tte UvrD helicase,is not affected; also recorded: still demonstrated ATPase activity
same,mode of ATPase inhibition with respect to ATP,SARS-CoV-2 Nsp13 [7],uncompetitive
same,reduction in cell viability,"[8]; 4 μM, across all mammalian cell lines tested",~50%
C[C@H](NC(=O)Cc1cc(F)cc(F)c1)C(=O)N[C@@H]1C(=O)N(C)c2ccccc2-c2ccccc21 [dibenzazepine],ATPase inhibition on titration in the presence of detergent,"SARS-CoV-2 Nsp13 [2]; Tween-20, up to high micromolar concentrations",no inhibition
same,"first-round screen, inhibition of Nsp13 ATPase activity (considered active)",SARS-CoV-2 Nsp13 [2],active
O=C(NCc1ccc(Cn2cc(Cl)cn2)cc1)c1nc(-c2ccc(C(F)(F)F)cc2)no1 [Analog 1],IC50,SARS-CoV-2 Nsp13 [1],131 ± 53 µM
same,fold higher helicase IC50 than IOWH-032,"SARS-CoV-2 Nsp13 [1]; 3.12 nM Nsp13, 0.01% Tween-20",> 10 fold
same,inhibition at 50 µM,SARS-CoV-2 Nsp13 [1],> 25%
Cc1ccc(COc2c(Br)cc(CNc3ccc(Oc4ccccc4)cc3)cc2Br)cc1 [Analog 5],inhibition at 50 µM,SARS-CoV-2 Nsp13 [1],< 25%
C=CCn1c(CSc2ccccc2[N+](=O)[O-])n[nH]c1=S [SSYA10-001],inhibition of helicase activity,SARS-CoV-2 Nsp13 [1],inhibited
O=C(Cn1cccc1-c1nc(-c2ccc(F)c(Br)c2)no1)NCc1ccc(F)cc1 [Analog 6],inhibition at 50 µM,SARS-CoV-2 Nsp13 [1],< 25%
O=C1O[C@H]2[C@@H]3OC(=O)c4cc(O)c(O)c(O)c4-c4c(O)c(O)c5oc(=O)c6c(c(O)c(O)c7oc(=O)c4c5c76)-c4c(cc(O)c(O)c4O)C(=O)OC[C@H]3OC(O)[C@@H]2OC(=O)c2cc(O)c(O)c(O)c2-c2c1cc(O)c(O)c2O (mixture of isomers) [punicalagin],Kd,Nsp13,~0.02 µM
Cc1ccc(-c2cc(C(=O)NCc3ccc(Oc4ccccc4)cc3)no2)cc1C [Analog 2],displacement of duplex-FL probe,SARS-CoV-2 Nsp13 [9],no displacement of probe
same,toxicity against infection cell lines,[8]; up to 20 µM,did not show toxicity
same,inhibition of helicase activity,"SARS-CoV-2 Nsp13 [1]; 50 μM analog, 3.12 nM Nsp13, 0.01% Tween-20",no inhibition
